Results from patent US11753397B2, “Cereblon binders for the degradation of ikaros” (C4 Therapeutics, Inc., priority 2018, dated 2023).

Test system: NCIH929.1 cells
Test: Cell viability assay (CellTiter-Glo 2.0, ATP quantification)
Type: cell-based
Settings: NCIH929.1 cell viability, CellTiter-Glo 2.0, 96 hr incubation, top concentration 1 μM
In short: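 Cells seeded at 750/well in RPMI with 10% FBS and 0.05 mM 2-mercaptoethanol, exposed 96 h at 37 °C to 10-point half-log dilutions in duplicate, top 1 μM. Viability by CellTiter-Glo 2.0 ATP luminescence, with a day-0 read as cytostatic baseline (CT0).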

SMILES | GI50
CCC1(C(=O)N2CCC(n3cc(CNc4cccc5c4C(=O)N(C4CCC(=O)NC4=O)C5=O)cn3)CC2)CCC1 (centres unmarked) [Compound 86, 2-(2,6-dioxopiperidin-3-yl)-4-(((1-(1-(1-ethylcyclobutane-1-carbonyl)piperidin-4-yl)-1H-pyrazol-4-yl)methyl)amino)isoindoline-1,3-dione] | < 100 nM
CC1(C(=O)N2CCC(n3cc(CNc4cccc5c4C(=O)N(C4CCC(=O)NC4=O)C5=O)cn3)CC2)CC1(Cl)Cl (centres unmarked) [Compound 87, 4-(((1-(1-(2,2-dichloro-1-methylcyclopropane-1-carbonyl)piperidin-4-yl)-1H-pyrazol-4-yl)methyl)amino)-2-(2,6-dioxopiperidin-3-yl)isoindoline-1,3-dione] | < 1 nM
O=C1CCC(N2C(=O)c3cccc(NCc4cnn(C5CCN(C(=O)N6CCCCC6)CC5)c4)c3C2=O)C(=O)N1 (centres unmarked) [Compound 88, 2-(2,6-dioxopiperidin-3-yl)-4-(((1-(1-(piperidine-1-carbonyl)piperidin-4-yl)-1H-pyrazol-4-yl)methyl)amino)isoindoline-1,3-dione] | < 100 nM
CC1(C)C(C(=O)N2CCC(n3cc(CNc4cccc5c4C(=O)N(C4CCC(=O)NC4=O)C5=O)cn3)CC2)C1(C)C (centres unmarked) [Compound 89, 2-(2,6-dioxopiperidin-3-yl)-4-(((1-(1-(2,2,3,3,3-tetramethylcyclopropane-1-carbonyl)piperidin-4-yl)-1H-pyrazol-4-yl)methyl)amino)isoindoline-1,3-dione] | < 1 nM
CC(C)(C)C(=O)N1CCC(n2cc(CNc3cccc4c3C(=O)N(C3CCC(=O)NC3=O)C4=O)cn2)CC1 (centres unmarked) [Compound 90, 2-(2,6-dioxopiperidin-3-yl)-4-(((1-(1-pivaloylpiperidin-4-yl)-1H-pyrazol-4-yl)methyl)amino)isoindoline-1,3-dione] | < 1 nM
O=C1CCC(N2C(=O)c3cccc(NCc4cnn(C5CCN(C(=O)C67CC(CO6)C7)CC5)c4)c3C2=O)C(=O)N1 (centres unmarked) [Compound 91, 4-(((1-(1-(2-oxabicyclo[2.1.1]hexane-1-carbonyl)piperidin-4-yl)-1H-pyrazol-4-yl)methyl)amino)-2-(2,6-dioxopiperidin-3-yl)isoindoline-1,3-dione] | < 100 nM
O=C1CCC(N2C(=O)c3cccc(NCc4cnn(C5CCN(C(=O)C6(Cc7ccc(F)cc7)CC6)CC5)c4)c3C2=O)C(=O)N1 (centres unmarked) [Compound 92, 2-(2,6-dioxopiperidin-3-yl)-4-(((1-(1-(1-(4-fluorobenzyl)cyclopropane-1-carbonyl)piperidin-4-yl)-1H-pyrazol-4-yl)methyl)amino)isoindoline-1,3-dione] | < 100 nM
C#CC1(C(=O)N2CCC(n3cc(CNc4cccc5c4C(=O)N(C4CCC(=O)NC4=O)C5=O)cn3)CC2)CCC1 (centres unmarked) [Compound 93, 2-(2,6-dioxopiperidin-3-yl)-4-(((1-(1-(1-ethynylcyclobutane-1-carbonyl)piperidin-4-yl)-1H-pyrazol-4-yl)methyl)amino)isoindoline-1,3-dione] | < 1 nM
O=C1CCC(N2C(=O)c3cccc(NCc4cnn(C5CCN(C(=O)C6(C7CC7)CCC6)CC5)c4)c3C2=O)C(=O)N1 (centres unmarked) [Compound 94, 4-(((1-(1-(1-cyclopropylcyclobutane-1-carbonyl)piperidin-4-yl)-1H-pyrazol-4-yl)methyl)amino)-2-(2,6-dioxopiperidin-3-yl)isoindoline-1,3-dione] | < 1 nM
O=C1CCC(N2C(=O)c3cccc(NCc4cnn(C5CCN(C(=O)C67C8C9C%10C8C6C%10C97)CC5)c4)c3C2=O)C(=O)N1 [Compound 95, 4-(((1-(1-((1s,4R,3R,4r,5r,6S,7S,8s)-cubane-1-carbonyl)piperidin-4-yl)-1H-pyrazol-4-yl)methyl)amino)-2-(2,6-dioxopiperidin-3-yl)isoindoline-1,3-dione] | < 1 nM
O=C1CCC(N2C(=O)c3cccc(NCc4cnn(C5CCN(C(=O)C6(Cc7ccc(F)cc7)CCC6)CC5)c4)c3C2=O)C(=O)N1 (centres unmarked) [Compound 96, 2-(2,6-dioxopiperidin-3-yl)-4-(((1-(1-(1-(4-fluorobenzyl)cyclobutane-1-carbonyl)piperidin-4-yl)-1H-pyrazol-4-yl)methyl)amino)isoindoline-1,3-dione] | < 1 nM
O=C1CCC(N2C(=O)c3cccc(NCc4cnn(C5CCN(C(=O)C67CCC(C6)C7)CC5)c4)c3C2=O)C(=O)N1 (centres unmarked) [Compound 97, 4-(((1-(1-(bicyclo[2.1.1]hexane-1-carbonyl)piperidin-4-yl)-1H-pyrazol-4-yl)methyl)amino)-2-(2,6-dioxopiperidin-3-yl)isoindoline-1,3-dione] | < 100 nM
O=C1CCC(N2C(=O)c3cccc(NCc4cnn(C5CCN(C(=O)C6C7(CC7)C67CC7)CC5)c4)c3C2=O)C(=O)N1 (centres unmarked) [Compound 98, 2-(2,6-dioxopiperidin-3-yl)-4-(((1-(1-(dispiro[2.0.24.13]heptane-7-carbonyl)piperidin-4-yl)-1H-pyrazol-4-yl)methyl)amino)isoindoline-1,3-dione] | < 1 nM
CC(=O)NCC1CCC(C(=O)N2CCC(n3cc(CNc4cccc5c4C(=O)N(C4CCC(=O)NC4=O)C5=O)cn3)CC2)CC1 (centres unmarked) [Compound 99, N-((4-(4-(4-(((2-(2,6-dioxopiperidin-3-yl)-1,3-dioxoisoindolin-4-yl)amino)methyl)-1H-pyrazol-1-yl)piperidine-1-carbonyl)cyclohexyl)methyl)acetamide] | < 100 nM
O=C1CCC(N2C(=O)c3cccc(NCc4cnn(C5CCN(C(=O)C6CCN(c7ccccn7)CC6)CC5)c4)c3C2=O)C(=O)N1 (centres unmarked) [Compound 100, 2-(2,6-dioxopiperidin-3-yl)-4-(((1-(1-(1-(pyridin-2-yl)piperidine-4-carbonyl)piperidin-4-yl)-1H-pyrazol-4-yl)methyl)amino)isoindoline-1,3-dione] | < 1 nM
O=C1CCC(N2C(=O)c3cccc(NCc4cnn(C5CCN(C(=O)C6CCN(C(=O)c7ccccc7)CC6)CC5)c4)c3C2=O)C(=O)N1 (centres unmarked) [Compound 101, 4-(((1-(1-(1-benzoylpiperidine-4-carbonyl)piperidin-4-yl)-1H-pyrazol-4-yl)methyl)amino)-2-(2,6-dioxopiperidin-3-yl)isoindoline-1,3-dione] | < 100 nM
CC(C)(C)OC(=O)N1CCC(F)(C(=O)N2CCC(n3cc(CNc4cccc5c4C(=O)N(C4CCC(=O)NC4=O)C5=O)cn3)CC2)CC1 (centres unmarked) [Compound 102, tert-butyl 4-(4-(4-(((2-(2,6-dioxopiperidin-3-yl)-1,3-dioxoisoindolin-4-yl)amino)methyl)-1H-pyrazol-1-yl)piperidine-1-carbonyl)-4-fluoropiperidine-1-carboxylate] | < 100 nM
COc1ccc(-c2cc(C(=O)N3CCC(n4cc(CNc5cccc6c5C(=O)N(C5CCC(=O)NC5=O)C6=O)cn4)CC3)ccn2)cc1 (centres unmarked) [Compound 103, 2-(2,6-dioxopiperidin-3-yl)-4-(((1-(1-(2-(4-methoxyphenyl)isonicotinoyl)piperidin-4-yl)-1H-pyrazol-4-yl)methyl)amino)isoindoline-1,3-dione] | < 100 nM
Cc1cccc2c(CC(=O)N3CCC(n4cc(CNc5cccc6c5C(=O)N(C5CCC(=O)NC5=O)C6=O)cn4)CC3)noc12 (centres unmarked) [Compound 104, 2-(2,6-dioxopiperidin-3-yl)-4-(((1-(1-(2-(7-methylbenzo[d]isoxazol-3-yl)acetyl)piperidin-4-yl)-1H-pyrazol-4-yl)methyl)amino)isoindoline-1,3-dione] | < 1 nM
Cc1oc(-c2cccc(F)c2)nc1CC(=O)N1CCC(n2cc(CNc3cccc4c3C(=O)N(C3CCC(=O)NC3=O)C4=O)cn2)CC1 (centres unmarked) [Compound 105, 2-(2,6-dioxopiperidin-3-yl)-4-(((1-(1-(2-(2-(3-fluorophenyl)-5-methyloxazol-4-yl)acetyl)piperidin-4-yl)-1H-pyrazol-4-yl)methyl)amino)isoindoline-1,3-dione] | < 100 nM
O=C1CCC(N2C(=O)c3cccc(NCc4cnn(C5CCN(C(=O)Cc6ccc(-c7ccc(F)cc7)cc6)CC5)c4)c3C2=O)C(=O)N1 (centres unmarked) [Compound 106, 2-(2,6-dioxopiperidin-3-yl)-4-(((1-(1-(2-(4′-fluoro-[1,1′-biphenyl]-4-yl)acetyl)piperidin-4-yl)-1H-pyrazol-4-yl)methyl)amino)isoindoline-1,3-dione] | < 100 nM
O=C1CCC(N2C(=O)c3cccc(NCc4cnn(C5CCN(C(=O)C6CCN(C(=O)C7CCCC7)CC6)CC5)c4)c3C2=O)C(=O)N1 (centres unmarked) [Compound 107, 4-(((1-(1-(1-(cyclopentanecarbonyl)piperidine-4-carbonyl)piperidin-4-yl)-1H-pyrazol-4-yl)methyl)amino)-2-(2,6-dioxopiperidin-3-yl)isoindoline-1,3-dione] | < 100 nM
O=C1CCC(N2C(=O)c3cccc(NCc4cnn(C5CCN(C(=O)c6cccc(C#Cc7ccccc7)c6)CC5)c4)c3C2=O)C(=O)N1 (centres unmarked) [Compound 108, 2-(2,6-dioxopiperidin-3-yl)-4-(((1-(1-(3-(phenylethynyl)benzoyl)piperidin-4-yl)-1H-pyrazol-4-yl)methyl)amino)isoindoline-1,3-dione] | < 100 nM
O=C1CCC(N2C(=O)c3cccc(NCc4cnn(C5CCN(C(=O)C6CCN(C(=O)C7CCOCC7)CC6)CC5)c4)c3C2=O)C(=O)N1 (centres unmarked) [Compound 109, 2-(2,6-dioxopiperidin-3-yl)-4-(((1-(1-(1-(tetrahydro-2H-pyran-4-carbonyl)piperidine-4-carbonyl)piperidin-4-yl)-1H-pyrazol-4-yl)methyl)amino)isoindoline-1,3-dione] | < 100 nM
Cc1ccc(OC(C)(C)C(=O)N2CCC(n3cc(CNc4cccc5c4C(=O)N(C4CCC(=O)NC4=O)C5=O)cn3)CC2)cc1C (centres unmarked) [Compound 110, 4-(((1-(1-(2-(3,4-dimethylphenoxy)-2-methylpropanoyl)piperidin-4-yl)-1H-pyrazol-4-yl)methyl)amino)-2-(2,6-dioxopiperidin-3-yl)isoindoline-1,3-dione] | < 100 nM
COCC(=O)N1CCC(C(=O)N2CCC(n3cc(CNc4cccc5c4C(=O)N(C4CCC(=O)NC4=O)C5=O)cn3)CC2)CC1 (centres unmarked) [Compound 111, 2-(2,6-dioxopiperidin-3-yl)-4-(((1-(1-(1-(2-methoxyacetyl)piperidine-4-carbonyl)piperidin-4-yl)-1H-pyrazol-4-yl)methyl)amino)isoindoline-1,3-dione] | < 100 nM
